Results: PMC12454493, “Insight on novel sulfamoylphenyl pyrazole derivatives as anticancer carbonic anhydrase inhibitors” (Molecular Diversity, 2024)
Several values for one entry are separate records, joined by “and”; a condition that tells them apart may be missing. Identical values can stand only once.

How the values were obtained:
NCI-H322M = assay: NCI-60 one-dose SRB screen (Non-Small Cell Lung Cancer); assay type: cell-based; conditions: Homo sapiens, single dose 10 µM, 48 h, read-out: Growth inhibition percent (GI %)
NCI-H23 = assay: as above; assay type: cell-based; conditions: Homo sapiens, single dose 10 µM, 48 h, read-out: Growth inhibition percent (GI %)
HOP-62 = assay: as above; assay type: cell-based; conditions: Homo sapiens, single dose 10 µM, 48 h, read-out: Growth inhibition percent (GI %)
A549/ATCC = assay: as above; assay type: cell-based; conditions: Homo sapiens, single dose 10 µM, 48 h, read-out: Growth inhibition percent (GI %)
HOP-92 = assay: as above; assay type: cell-based; conditions: Homo sapiens, single dose 10 µM, 48 h, read-out: Growth inhibition percent (GI %)
NCI-H226 = assay: as above; assay type: cell-based; conditions: Homo sapiens, single dose 10 µM, 48 h, read-out: Growth inhibition percent (GI %)
NCI-H460 = assay: as above; assay type: cell-based; conditions: Homo sapiens, single dose 10 µM, 48 h, read-out: Growth inhibition percent (GI %)
NCI-H522 = assay: as above; assay type: cell-based; conditions: Homo sapiens, single dose 10 µM, 48 h, read-out: Growth inhibition percent (GI %)
EKVX = assay: as above; assay type: cell-based; conditions: Homo sapiens, single dose 10 µM, 48 h, read-out: Growth inhibition percent (GI %)
MOLT-4 = assay: NCI-60 one-dose SRB screen (Leukemia); assay type: cell-based; conditions: Homo sapiens, single dose 10 µM, 48 h, read-out: Growth inhibition percent (GI %)
K-562 = assay: NCI-60 one-dose SRB screen (Leukemia); assay type: cell-based; conditions: Homo sapiens, K562, single dose 10 µM, 48 h, read-out: Growth inhibition percent (GI %)
CCRF-CEM = assay: NCI-60 one-dose SRB screen (Leukemia); assay type: cell-based; conditions: Homo sapiens, single dose 10 µM, 48 h, read-out: Growth inhibition percent (GI %)
HL-60(TB) = assay: NCI-60 one-dose SRB screen (Leukemia); assay type: cell-based; conditions: Homo sapiens, single dose 10 µM, 48 h, read-out: Growth inhibition percent (GI %)
RPMI-8226 = assay: NCI-60 one-dose SRB screen (Leukemia); assay type: cell-based; conditions: Homo sapiens, single dose 10 µM, 48 h, read-out: Growth inhibition percent (GI %)
SR = assay: NCI-60 one-dose SRB screen (Leukemia); assay type: cell-based; conditions: Homo sapiens, single dose 10 µM, 48 h, read-out: Growth inhibition percent (GI %)
hCA XII = hCA XII (Homo sapiens, UniProt O43570); assay: CA inhibitory activity, spectrophotometric p-NPA assay; assay type: biochemical; conditions: for IC50: p-NPA substrate, pH 7.5, 25 °C, triplicate, read-out: IC50 (µM) ± SD hCA XII
PC-3 = assay: NCI-60 one-dose SRB screen (Prostate Cancer); assay type: cell-based; conditions: Homo sapiens, single dose 10 µM, 48 h, read-out: Growth inhibition percent (GI %)
DU-145 = assay: NCI-60 one-dose SRB screen (Prostate Cancer); assay type: cell-based; conditions: Homo sapiens, single dose 10 µM, 48 h, read-out: Growth inhibition percent (GI %)
ACHN = assay: NCI-60 one-dose SRB screen (Renal Cancer); assay type: cell-based; conditions: Homo sapiens, single dose 10 µM, 48 h, read-out: Growth inhibition percent (GI %)
CAKI-1 = assay: NCI-60 one-dose SRB screen (Renal Cancer); assay type: cell-based; conditions: Homo sapiens, single dose 10 µM, 48 h, read-out: Growth inhibition percent (GI %)
UO-31 = assay: NCI-60 one-dose SRB screen (Renal Cancer); assay type: cell-based; conditions: Homo sapiens, single dose 10 µM, 48 h, read-out: Growth inhibition percent (GI %)
A498 = assay: NCI-60 one-dose SRB screen (Renal Cancer); assay type: cell-based; conditions: Homo sapiens, single dose 10 µM, 48 h, read-out: Growth inhibition percent (GI %)
RXF 393 = assay: NCI-60 one-dose SRB screen (Renal Cancer); assay type: cell-based; conditions: Homo sapiens, single dose 10 µM, 48 h, read-out: Growth inhibition percent (GI %)
TK-10 = assay: NCI-60 one-dose SRB screen (Renal Cancer); assay type: cell-based; conditions: Homo sapiens, single dose 10 µM, 48 h, read-out: Growth inhibition percent (GI %)
786-0 = assay: NCI-60 one-dose SRB screen (Renal Cancer); assay type: cell-based; conditions: Homo sapiens, single dose 10 µM, 48 h, read-out: Growth inhibition percent (GI %)
SK-MEL-28 = assay: NCI-60 one-dose SRB screen (Melanoma); assay type: cell-based; conditions: Homo sapiens, single dose 10 µM, 48 h, read-out: Growth inhibition percent (GI %)
SK-MEL-2 = assay: NCI-60 one-dose SRB screen (Melanoma); assay type: cell-based; conditions: Homo sapiens, single dose 10 µM, 48 h, read-out: Growth inhibition percent (GI %)
MALME-3M = assay: NCI-60 one-dose SRB screen (Melanoma); assay type: cell-based; conditions: Homo sapiens, single dose 10 µM, 48 h, read-out: Growth inhibition percent (GI %)
UACC-62 = assay: NCI-60 one-dose SRB screen (Melanoma); assay type: cell-based; conditions: Homo sapiens, single dose 10 µM, 48 h, read-out: Growth inhibition percent (GI %)
M14 = assay: NCI-60 one-dose SRB screen (Melanoma); assay type: cell-based; conditions: Homo sapiens, single dose 10 µM, 48 h, read-out: Growth inhibition percent (GI %)
SK-MEL-5 = assay: NCI-60 one-dose SRB screen (Melanoma); assay type: cell-based; conditions: Homo sapiens, single dose 10 µM, 48 h, read-out: Growth inhibition percent (GI %)
UACC-257 = assay: NCI-60 one-dose SRB screen (Melanoma); assay type: cell-based; conditions: Homo sapiens, single dose 10 µM, 48 h, read-out: Growth inhibition percent (GI %)
SF-539 = assay: NCI-60 one-dose SRB screen (CNS Cancer); assay type: cell-based; conditions: Homo sapiens, single dose 10 µM, 48 h, read-out: Growth inhibition percent (GI %)
U251 = assay: NCI-60 one-dose SRB screen (CNS Cancer); assay type: cell-based; conditions: Homo sapiens, U-251, single dose 10 µM, 48 h, read-out: Growth inhibition percent (GI %)
SF-295 = assay: NCI-60 one-dose SRB screen (CNS Cancer); assay type: cell-based; conditions: Homo sapiens, single dose 10 µM, 48 h, read-out: Growth inhibition percent (GI %)
SF-268 = assay: NCI-60 one-dose SRB screen (CNS Cancer); assay type: cell-based; conditions: Homo sapiens, single dose 10 µM, 48 h, read-out: Growth inhibition percent (GI %)
SNB-75 = assay: NCI-60 one-dose SRB screen (CNS Cancer); assay type: cell-based; conditions: Homo sapiens, single dose 10 µM, 48 h, read-out: Growth inhibition percent (GI %)
SNB-19 = assay: NCI-60 one-dose SRB screen (CNS Cancer); assay type: cell-based; conditions: Homo sapiens, single dose 10 µM, 48 h, read-out: Growth inhibition percent (GI %)
hCA IX = hCA IX (Homo sapiens, UniProt Q16790); assay: CA inhibitory activity, spectrophotometric p-NPA assay; assay type: biochemical
COLO 205 = assay: NCI-60 one-dose SRB screen (Colon Cancer); assay type: cell-based; conditions: Homo sapiens, single dose 10 µM, 48 h, read-out: Growth inhibition percent (GI %)
HCC-2998 = assay: NCI-60 one-dose SRB screen (Colon Cancer); assay type: cell-based; conditions: Homo sapiens, single dose 10 µM, 48 h, read-out: Growth inhibition percent (GI %)
HT29 = assay: NCI-60 one-dose SRB screen (Colon Cancer); assay type: cell-based; conditions: Homo sapiens, HT-29, single dose 10 µM, 48 h, read-out: Growth inhibition percent (GI %)
SW-620 = assay: NCI-60 one-dose SRB screen (Colon Cancer); assay type: cell-based; conditions: Homo sapiens, single dose 10 µM, 48 h, read-out: Growth inhibition percent (GI %)
KM12 = assay: NCI-60 one-dose SRB screen (Colon Cancer); assay type: cell-based; conditions: Homo sapiens, single dose 10 µM, 48 h, read-out: Growth inhibition percent (GI %)
HCT-116 = assay: NCI-60 one-dose SRB screen (Colon Cancer); assay type: cell-based; conditions: Homo sapiens, single dose 10 µM, 48 h, read-out: Growth inhibition percent (GI %)
HCT-15 = assay: NCI-60 one-dose SRB screen (Colon Cancer); assay type: cell-based; conditions: Homo sapiens, single dose 10 µM, 48 h, read-out: Growth inhibition percent (GI %)
SN12C = assay: NCI-60 one-dose SRB screen (Renal Cancer); assay type: cell-based; conditions: Homo sapiens, single dose 10 µM, 48 h, read-out: Growth inhibition percent (GI %)

Chain of hCA XII (O43570 25-354): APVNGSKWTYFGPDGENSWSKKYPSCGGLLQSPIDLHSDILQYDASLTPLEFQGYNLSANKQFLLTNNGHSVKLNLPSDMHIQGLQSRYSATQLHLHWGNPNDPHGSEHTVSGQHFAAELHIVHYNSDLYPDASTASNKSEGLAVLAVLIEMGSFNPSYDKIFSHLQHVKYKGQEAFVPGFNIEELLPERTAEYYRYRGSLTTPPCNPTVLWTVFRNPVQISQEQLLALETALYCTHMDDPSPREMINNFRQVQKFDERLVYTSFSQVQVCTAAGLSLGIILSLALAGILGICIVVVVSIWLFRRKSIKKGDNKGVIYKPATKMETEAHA

CS(=O)(=O)c1ccc(-c2nn(-c3ccc(S(N)(=O)=O)cc3)cc2C(=O)OCC(=O)Nc2ccc(S(N)(=O)=O)cc2)cc1 [Compound 4e, 2-Oxo-2-[(4-sulfamoylphenyl)amino] ethyl 3-(4-(methylsulfonyl)phenyl)-1-(4-sulfamoylphenyl)-1H-pyrazole-4-carboxylate]
inhibition at 10 µM (NCI-H322M): < 5% | inhibition at 10 µM (NCI-H23): < 5% | inhibition at 10 µM (HOP-62): < 5% | inhibition at 10 µM (A549/ATCC): 6.92% | inhibition at 10 µM (HOP-92): < 5% | inhibition at 10 µM (NCI-H226): < 5% | inhibition at 10 µM (NCI-H460): < 5% | inhibition at 10 µM (NCI-H522): 23.1% | inhibition at 10 µM (EKVX): < 5% | inhibition at 10 µM (MOLT-4): < 5% | inhibition at 10 µM (K-562): < 5% | inhibition at 10 µM (CCRF-CEM): < 5% | inhibition at 10 µM (HL-60(TB)): < 5% | inhibition at 10 µM (RPMI-8226): < 5% | inhibition at 10 µM (SR): < 5% | Ki (hCA XII): 81 nM | IC50 (hCA XII): 0.08 µM and 0.081 µM | inhibition at 10 µM (PC-3): < 5% | inhibition at 10 µM (DU-145): < 5% | inhibition at 10 µM (ACHN): < 5% | inhibition at 10 µM (CAKI-1): 8.93% | inhibition at 10 µM (UO-31): 8.95% | inhibition at 10 µM (A498): < 5% | inhibition at 10 µM (RXF 393): < 5% | inhibition at 10 µM (TK-10): < 5% | inhibition at 10 µM (786-0): < 5% | inhibition at 10 µM (SK-MEL-28): < 5% | inhibition at 10 µM (SK-MEL-2): < 5% | inhibition at 10 µM (MALME-3M): < 5% | inhibition at 10 µM (UACC-62): < 5% | inhibition at 10 µM (M14): < 5% | inhibition at 10 µM (SK-MEL-5): < 5% | inhibition at 10 µM (UACC-257): 6.07% | inhibition at 10 µM (SF-539): < 5% | inhibition at 10 µM (U251): < 5% | inhibition at 10 µM (SF-295): < 5% | inhibition at 10 µM (SF-268): < 5% | inhibition at 10 µM (SNB-75): < 5% | inhibition at 10 µM (SNB-19): < 5% | Ki (hCA IX): 72 nM | IC50 (hCA IX; p-NPA substrate, pH 7.5, 25 °C, triplicate, read-out: IC50 (µM) ± SD hCA IX): 0.07 µM and 0.072 µM | inhibition at 10 µM (COLO 205): < 5% | inhibition at 10 µM (HCC-2998): < 5% | inhibition at 10 µM (HT29): 6.67% | inhibition at 10 µM (SW-620): < 5% | inhibition at 10 µM (KM12): < 5% | inhibition at 10 µM (HCT-116): < 5% | inhibition at 10 µM (HCT-15): < 5%

CCOC(=O)c1ccc(NC(=O)COC(=O)c2cn(-c3ccc(S(N)(=O)=O)cc3)nc2-c2ccc(C)cc2)cc1 [Compound 5b, 2-[(4-(Ethoxycarbonyl)phenyl)amino]-2-oxoethyl 1-(4-sulfamoylphenyl)-3-(p-tolyl)-1H-pyrazole-4-carboxylate]
inhibition at 10 µM (NCI-H322M): 23.7% | inhibition at 10 µM (NCI-H23): 40.3% | inhibition at 10 µM (HOP-62): < 5% | inhibition at 10 µM (A549/ATCC): 51.1% | inhibition at 10 µM (HOP-92): 56.3% | inhibition at 10 µM (NCI-H226): 43% | inhibition at 10 µM (NCI-H460): 60.8% | inhibition at 10 µM (NCI-H522): 49% | inhibition at 10 µM (EKVX): 55.6% | inhibition at 10 µM (MOLT-4): 83.8% | inhibition at 10 µM (K-562): 74.5% | inhibition at 10 µM (CCRF-CEM): 75.4% | inhibition at 10 µM (HL-60(TB)): 70.2% | inhibition at 10 µM (RPMI-8226): 64.1% | inhibition at 10 µM (SR): 73.4% | Ki (hCA XII): 106 nM | IC50 (hCA XII): 0.1 µM and 0.106 µM | inhibition at 10 µM (PC-3): 68.7% | inhibition at 10 µM (DU-145): 28.9% | inhibition at 10 µM (ACHN): 52.8% | inhibition at 10 µM (CAKI-1): 70.2% | inhibition at 10 µM (SN12C): 38.2% | inhibition at 10 µM (UO-31): 58.8% | inhibition at 10 µM (A498): 31.7% | inhibition at 10 µM (RXF 393): 73.2% | inhibition at 10 µM (TK-10): 14% | inhibition at 10 µM (786-0): 66% | inhibition at 10 µM (SK-MEL-28): 48.2% | inhibition at 10 µM (SK-MEL-2): 27.9% | inhibition at 10 µM (MALME-3M): 35.5% | inhibition at 10 µM (UACC-62): 53.4% | inhibition at 10 µM (M14): 56.9% | inhibition at 10 µM (SK-MEL-5): 39.3% | inhibition at 10 µM (UACC-257): 39.1% | inhibition at 10 µM (SF-539): 60.9% | inhibition at 10 µM (U251): 54.1% | inhibition at 10 µM (SF-295): 54.8% | inhibition at 10 µM (SF-268): 55.4% | inhibition at 10 µM (SNB-75): 62.9% | inhibition at 10 µM (SNB-19): 48.4% | inhibition at 10 µM (COLO 205): 42.3% | inhibition at 10 µM (HCC-2998): 47% | inhibition at 10 µM (HT29): 64.4% | inhibition at 10 µM (SW-620): 37% | inhibition at 10 µM (KM12): 70.3% | inhibition at 10 µM (HCT-116): 60.7% | inhibition at 10 µM (HCT-15): 65.7%
